According to the supplement of paper PMC10307832:

Tests used:
Experiment in all cases: relative viability (nuclei count vs DMSO), 5 days (fraction); higher = more cells survive
201T = test system: 201T
Method in brief: (§1)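 One day after seeding in 1536-well plates, lung cancer cell lines were dosed by pin tool. Dosing was either single-drug or a fixed anchor-drug dose plus five library-drug doses (not always all listed) in √10 steps. After 5 days, nuclei were stained in one fix-and-stain step and counted on 4× images, and relative viability is the nuclei count of treated wells over that of vehicle wells, given as the median of duplicate plates.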

COR-L23 = test system: COR-L23
Method in brief: as §1

EPLC-272H = test system: EPLC-272H
Method in brief: as §1

H3255 = test system: H3255
Method in brief: as §1

HCC-44 = test system: HCC-44
Method in brief: as §1

LOU-NH91 = test system: LOU-NH91
Method in brief: as §1

NCI-H1563 = test system: NCI-H1563
Method in brief: as §1

NCI-H1650 = test system: NCI-H1650
Method in brief: as §1

NCI-H1734 = test system: NCI-H1734
Method in brief: as §1

NCI-H1793 = test system: NCI-H1793
Method in brief: as §1

NCI-H1993 = test system: NCI-H1993
Method in brief: as §1

NCI-H2023 = test system: NCI-H2023
Method in brief: as §1

NCI-H2085 = test system: NCI-H2085
Method in brief: as §1

NCI-H2170 = test system: NCI-H2170
Method in brief: as §1

NCI-H2347 = test system: NCI-H2347
Method in brief: as §1

NCI-H2405 = test system: NCI-H2405
Method in brief: as §1

NCI-H3122 = test system: NCI-H3122
Method in brief: as §1

NCI-H441 = test system: NCI-H441
Method in brief: as §1

NCI-H520 = test system: NCI-H520
Method in brief: as §1

NCI-H647 = test system: NCI-H647
Method in brief: as §1

PC-14 = test system: PC-14
Method in brief: as §1

RERF-LC-KJ = test system: RERF-LC-KJ
Method in brief: as §1

SW 900 = test system: SW 900
Method in brief: as §1

`NC(=O)Nc1cc(-c2cccc(F)c2)sc1C(=O)N[C@H]1CCCNC1` [AZD7762] + CCNC(=O)c1noc(-c2cc(C(C)C)c(O)cc2O)c1-c1ccc(CN2CCOCC2)cc1 [Luminespib] (partner 0.01 µM) was tested, and the relative viability (201T; first compound 0.01 µM) was 1.11, the relative viability (201T; first compound 0.03162 µM) was 1.07 and the relative viability (201T; first compound 0.1 µM) was 1.06. It also gave a relative viability (201T; first compound 0.3162 µM) of 1.14, a relative viability (201T; first compound 1 µM) of 0.913 and a relative viability (COR-L23; first compound 0.01 µM) of 0.687. For the same molecule, the relative viability (COR-L23; first compound 0.03162 µM) was 0.653, the relative viability (COR-L23; first compound 0.1 µM) was 0.568 and the relative viability (COR-L23; first compound 0.3162 µM) was 0.216. It also gave a relative viability (COR-L23; first compound 1 µM) of 0.117, a relative viability (EPLC-272H; first compound 0.01 µM) of 0.55 and a relative viability (EPLC-272H; first compound 0.03162 µM) of 0.303. For the same molecule, the relative viability (EPLC-272H; first compound 0.1 µM) was 0.319, the relative viability (EPLC-272H; first compound 0.3162 µM) was 0.459 and the relative viability (EPLC-272H; first compound 1 µM) was 0.143. It also gave a relative viability (H3255; first compound 0.01 µM) of 1.02, a relative viability (H3255; first compound 0.03162 µM) of 0.982 and a relative viability (H3255; first compound 0.1 µM) of 0.975. The relative viability (H3255; first compound 0.3162 µM) was 0.913, the relative viability (H3255; first compound 1 µM) was 0.962 and the relative viability (HCC-44; first compound 0.01 µM) was 1.14. The relative viability (HCC-44; first compound 0.03162 µM) was 0.997, the relative viability (HCC-44; first compound 0.1 µM) was 0.918 and the relative viability (HCC-44; first compound 0.3162 µM) was 0.96. For the same molecule, the relative viability (HCC-44; first compound 1 µM) was 0.423, the relative viability (LOU-NH91; first compound 0.01 µM) was 0.302 and the relative viability (LOU-NH91; first compound 0.03162 µM) was 0.317. It also gave a relative viability (LOU-NH91; first compound 0.1 µM) of 0.403, a relative viability (LOU-NH91; first compound 0.3162 µM) of 0.309 and a relative viability (LOU-NH91; first compound 1 µM) of 0.379. It also gave a relative viability (NCI-H1563; first compound 0.01 µM) of 0.524, a relative viability (NCI-H1563; first compound 0.03162 µM) of 0.507 and a relative viability (NCI-H1563; first compound 0.1 µM) of 0.523. The relative viability (NCI-H1563; first compound 0.3162 µM) was 0.505, the relative viability (NCI-H1563; first compound 1 µM) was 0.475 and the relative viability (NCI-H1650; first compound 0.01 µM) was 0.191. The relative viability (NCI-H1650; first compound 0.03162 µM) was 0.175, the relative viability (NCI-H1650; first compound 0.1 µM) was 0.22 and the relative viability (NCI-H1650; first compound 0.3162 µM) was 0.186. The relative viability (NCI-H1650; first compound 1 µM) was 0.192, the relative viability (NCI-H1734; first compound 0.01 µM) was 0.219 and the relative viability (NCI-H1734; first compound 0.03162 µM) was 0.219. For the same molecule, the relative viability (NCI-H1734; first compound 0.1 µM) was 0.146, the relative viability (NCI-H1734; first compound 0.3162 µM) was 0.162 and the relative viability (NCI-H1734; first compound 1 µM) was 0.157. For the same molecule, the relative viability (NCI-H1793; first compound 0.01 µM) was 0.175, the relative viability (NCI-H1793; first compound 0.03162 µM) was 0.195 and the relative viability (NCI-H1793; first compound 0.1 µM) was 0.163. The relative viability (NCI-H1793; first compound 0.3162 µM) was 0.403, the relative viability (NCI-H1793; first compound 1 µM) was 0.179 and the relative viability (NCI-H1993; first compound 0.01 µM) was 1.04. The relative viability (NCI-H1993; first compound 0.03162 µM) was 0.948, the relative viability (NCI-H1993; first compound 0.1 µM) was 0.81 and the relative viability (NCI-H1993; first compound 0.3162 µM) was 0.971. For the same molecule, the relative viability (NCI-H1993; first compound 1 µM) was 0.678, the relative viability (NCI-H2023; first compound 0.01 µM) was 0.824 and the relative viability (NCI-H2023; first compound 0.03162 µM) was 0.498. The relative viability (NCI-H2023; first compound 0.1 µM) was 0.228, the relative viability (NCI-H2023; first compound 0.3162 µM) was 0.141 and the relative viability (NCI-H2023; first compound 1 µM) was 0.114. It also gave a relative viability (NCI-H2085; first compound 0.01 µM) of 0.47, a relative viability (NCI-H2085; first compound 0.03162 µM) of 0.468 and a relative viability (NCI-H2085; first compound 0.1 µM) of 0.475. For the same molecule, the relative viability (NCI-H2085; first compound 0.3162 µM) was 0.459, the relative viability (NCI-H2085; first compound 1 µM) was 0.374 and the relative viability (NCI-H2170; first compound 0.01 µM) was 0.644. For the same molecule, the relative viability (NCI-H2170; first compound 0.03162 µM) was 0.666, the relative viability (NCI-H2170; first compound 0.1 µM) was 0.71 and the relative viability (NCI-H2170; first compound 0.3162 µM) was 0.833. It also gave a relative viability (NCI-H2170; first compound 1 µM) of 0.724, a relative viability (NCI-H2347; first compound 0.01 µM) of 0.417 and a relative viability (NCI-H2347; first compound 0.03162 µM) of 0.573. The relative viability (NCI-H2347; first compound 0.1 µM) was 0.715, the relative viability (NCI-H2347; first compound 0.3162 µM) was 0.396 and the relative viability (NCI-H2347; first compound 1 µM) was 0.63. It also gave a relative viability (NCI-H2405; first compound 0.01 µM) of 0.823, a relative viability (NCI-H2405; first compound 0.03162 µM) of 0.707 and a relative viability (NCI-H2405; first compound 0.1 µM) of 0.784. For the same molecule, the relative viability (NCI-H2405; first compound 0.3162 µM) was 0.672, the relative viability (NCI-H2405; first compound 1 µM) was 0.33 and the relative viability (NCI-H3122; first compound 0.01 µM) was 0.0859. For the same molecule, the relative viability (NCI-H3122; first compound 0.03162 µM) was 0.0843, the relative viability (NCI-H3122; first compound 0.1 µM) was 0.109 and the relative viability (NCI-H3122; first compound 0.3162 µM) was 0.0927. The relative viability (NCI-H3122; first compound 1 µM) was 0.0813, the relative viability (NCI-H441; first compound 0.01 µM) was 0.402 and the relative viability (NCI-H441; first compound 0.03162 µM) was 0.489. For the same molecule, the relative viability (NCI-H441; first compound 0.1 µM) was 0.285, the relative viability (NCI-H441; first compound 0.3162 µM) was 0.436 and the relative viability (NCI-H441; first compound 1 µM) was 0.212. It also gave a relative viability (NCI-H520; first compound 0.01 µM) of 0.208, a relative viability (NCI-H520; first compound 0.03162 µM) of 0.191 and a relative viability (NCI-H520; first compound 0.1 µM) of 0.238. For the same molecule, the relative viability (NCI-H520; first compound 0.3162 µM) was 0.254, the relative viability (NCI-H520; first compound 1 µM) was 0.234 and the relative viability (NCI-H647; first compound 0.01 µM) was 0.118. The relative viability (NCI-H647; first compound 0.03162 µM) was 0.163, the relative viability (NCI-H647; first compound 0.1 µM) was 0.0996 and the relative viability (NCI-H647; first compound 0.3162 µM) was 0.119. It also gave a relative viability (NCI-H647; first compound 1 µM) of 0.101, a relative viability (PC-14; first compound 0.01 µM) of 0.162 and a relative viability (PC-14; first compound 0.03162 µM) of 0.199. It also gave a relative viability (PC-14; first compound 0.1 µM) of 0.16, a relative viability (PC-14; first compound 0.3162 µM) of 0.118 and a relative viability (PC-14; first compound 1 µM) of 0.136. The relative viability (RERF-LC-KJ; first compound 0.01 µM) was 1.41, the relative viability (RERF-LC-KJ; first compound 0.03162 µM) was 1.38 and the relative viability (RERF-LC-KJ; first compound 0.1 µM) was 1.21. It also gave a relative viability (RERF-LC-KJ; first compound 0.3162 µM) of 1.2, a relative viability (RERF-LC-KJ; first compound 1 µM) of 1.02 and a relative viability (SW 900; first compound 0.01 µM) of 0.182. For the same molecule, the relative viability (SW 900; first compound 0.03162 µM) was 0.18, the relative viability (SW 900; first compound 0.1 µM) was 0.201 and the relative viability (SW 900; first compound 0.3162 µM) was 0.159. The relative viability (SW 900; first compound 1 µM) was 0.146.
